Assay results published in patent publication US20060089347A1, “Substituted azepines as histamine h3 receptor antagonists, preparation and therapeutic uses” (Eli Lilly and Company, priority 2002, published 2006).
Structures can show the parent of a compound that is named as a salt.

Key:
H3R = target: T1, H3R (Homo sapiens, UniProt Q9Y5N1); experiment: competitive inhibition SPA binding assay, H3R; conditions: selectivity panel
T1 construct: expressed in transfected cells; host or cells: HEK293 (clone H3R8)
Source text: The inventive compounds can readily be evaluated by using a competitive inhibition Scintillation Proximity Assay (SPA) based on a H3R binding assay using [3H] a methylhistamine as ligand. Stable cell lines, including but not limited to HEK can be transfected with cDNA coding for H3R to prepare membranes used for the binding assay. The technique is illustrated below (Preparation of Histamine Receptor Subtype Membranes) for the histamine receptor subtypes.
(§1) cDNA for the human histamine 3 receptor was cloned and expressed as described in (Preparation of Histamine Receptor Subtye Membranes: A), above. Transfected cells were selected using G418 (500 μ/ml), grown, and tested for histamine binding by the SPA described above. For total binding, cells were assayed in a SPA reaction described above containing 50 mM Tris-HCL (assay buffer), pH 7.6, 1 mg wheat germ agglutinin SPA beads (Amersham Pharmacia Biotech, #RPNQ0001), and 1nM […]-n-alpha-methylhistamine (NEN, NET1027) (total volume per well=200μl). Thioperimide was added to determine non-specific binding. Several clones were selected as positive for binding, and a single clone (H3R8) was used to prepare membranes for binding studies described above. Five micrograms of protein was used per well in the SPA receptor-binding assay. […]

H4R = target: T2, H4R (Homo sapiens, UniProt Q9H3N8); experiment: competitive binding assay, GPRv53 (H4R); conditions: for Ki: competitive binding, selectivity panel; for inhibition of binding to H4R: in contrast to H3R
T2 construct: expressed in transfected cells; host or cells: HEK293 (HEK293 GPRv53 50 cells)
Description: cDNA for the human GPRv53 receptor was cloned and expressed as described in (Preparation of Histamine Receptor Subtype Membranes: A), above. Transfected cells were selected, tested for histamine binding, and selected. HEK293 GPRv53 50 cells were grown to confluency in DMEM/F12 (Gibco) supplemented with 5% FBS and 500 ug/ml G418 and washed with Delbecco's PBS (Gibco) and harvested by scraping. Whole cells were homogenized with a Polytron tissuemizer in binding buffer, 50 mM Tris pH 7.5. Cell lysates, 50 ug, were incubated in 96 well dishes with 3 nM (3H) Histamine and compounds in binding buffer for 2 hours at room temperature. Lysates were filtered through glass fiber filters (Perlin Elmer) with a Tomtec cell harverster. Filters were counted with melt-on scintillator sheets (Perlin Elmer) in a Wallac Trilux 1450 Microbeta Scintillation counter for 5 minutes.
(§2) To investigate the selectivity of the antagonists for the histamine receptors, a competitive binding assay described above was performed. […] Until the present invention, most known H3R antagonists also bound H4R.

H3R membranes = target: T3, H3R membranes (Homo sapiens, UniProt Q9Y5N1); experiment: [35S]GTPγS binding assay (antagonist activity); type: biochemical; conditions: inhibition of [35S]GTPγS binding to H3R membranes in presence of agonist R(-)alpha methylhistamine
T3 construct: expressed in transfected cells; host or cells: HEK293 (clone H3R8)
Description: Membranes isolated as described in (Preparation of Histamine Receptor Subtype Membranes) were used in a [35S]GTPχS functional assay. Binding of [35S]GTPχS to membranes indicates agonist activity. Compounds of the invention of Formula I were tested for their ability to inhibit binding in the presence of agonists. Alternately, the same transfected cell lines were used for a cAMP assay wherein H3R agonists inhibited forskolin-activated synthesis of cAMP. Compounds of Formula I were tested for their ability to permit forskolin-stimulated cAMP synthesis in the presence of agonist.
as §1, with “binding.” for “binding. Several clones were selected as positive for binding, and a single clone (H3R8) was used to prepare membranes for binding studies described above. Five micrograms of protein was used per well in the SPA receptor-binding assay.”
Antagonist activity of selected compounds was tested for inhibition of [35S] […] Plates were counted in Wallac Trilux 1450 Microbeta scintillation counter for 1 minute. […]

H2R = target: T4, H2R (Homo sapiens, UniProt P25021); experiment: competitive SPA binding assay, H2R; conditions: selectivity panel
T4 construct: expressed in transfected cells; host or cells: HEK 293 (clone H2R10)
Description: cDNA for the human histamine 2 receptor was cloned, expressed and transfected into HEK 293 cells as described above. Histamine binding to cells was assayed by SPA described above. For total binding, cells were assayed in a SPA reaction containing 50 mM Tris-HCl (assay buffer), pH 7.6, 1 mg wheat germ agglutinin SPA beads (Amersham PharmaciaBiotech, #RPNQ0001), and 6.2 nM ^3H-tiotidine (Net-688, NEN) (total volume per well=200 μl). Cimetidine (10 μM, Sigma #C4522) was added to appropriate wells to determine non-specific binding.
Several clones were selected as positive for binding, and a single clone (H2R10) was used to prepare membranes for binding studies. Five micrograms of protein was used per well in the SPA receptor-binding assay.
as §2

H1R = target: T5, H1R (Homo sapiens, UniProt P35367); experiment: competitive SPA binding assay, H1R; conditions: selectivity panel
T5 construct: expressed in transfected cells; host or cells: HEK293 (clone HIR40), vector pcDNA3.1(+)
Description: cDNA for the human histamine 1 receptor (H1R) was cloned into a mammalian expression vector containing the CMV promoter (pcDNA3.1(+), Invitogen) and transfected into HEK293 cells using the FuGENE Tranfection Reagent (Roche Diagnostics Corporation). Transfected cells were selected using G418 (500 μ/ml). Colonies that survived selection were grown and tested for histamine binding to cells grown in 96-well dishes using a scintillation proximity assay (SPA) based radioligand binding assay. Briefly, cells, representing individual selected clones, were grown as confluent monolayers in 96-well dishes (Costar Clear Bottom Plates, #3632) by seeding wells with 25,000 cells and growing for 48 hours (37° C., 5% CO2). Growth media was removed and wells were rinsed two times with PBS (minus Ca^2+ or Mg^2+). For total binding, cells were assayed in a SPA reaction containing 50 mM Tris-HCL (assay buffer), pH 7.6, 1 mg wheat germ agglutinin SPA beads (Amersham Pharmacia Biotech, #RPNQ0001), and 0.8 nM ^3H-pyrilamine (Net-594, NEN) (total volume per well=[…]). Astemizole (10 μM, Sigma #A6424) was added to appropriate wells to determine non-specific binding. Plates were covered with FasCal and incubated at room temperature for 120 minutes. […] Plates were counted in a Wallac Trilux 1450 Microbeta scintillation counter. […]

[1] = rat pharmacokinetics iv/po; type: in vivo, Male Sprague Dawley Rats; conditions: male, Sprague Dawley, blood; for bioavailability: 3 mg/kg iv or 10 mg/kg po, AUC 0-8 hr po/iv ratio, vehicle water; for half-life: 10 mg/kg po
Description: Non-imidazole containing histamine H3 receptor antagonists disclosed in the literature generally have very poor pharmacokinetic properties (see J. Apelt, et al, J. Med. Chem. 2002, 45, 1128-1141). […] Male Sprague Dawley Rats (n=3 per dose arm) were separately dosed with 3 mg/kg iv or 10 mg/kg po of compound examples 8 and 19 (vehicle: water; dose volume: 1 mL/kg iv, 10 ml/kg po). Approximately 0.5 mL of blood was collected in heparin collection tubes at multiple time points over an 8 or 24 hour period for examples 8 and 19 respectively, and the samples were analyzed using LC/MS/MS.

T2 sequence (Q9H3N8 whole entry): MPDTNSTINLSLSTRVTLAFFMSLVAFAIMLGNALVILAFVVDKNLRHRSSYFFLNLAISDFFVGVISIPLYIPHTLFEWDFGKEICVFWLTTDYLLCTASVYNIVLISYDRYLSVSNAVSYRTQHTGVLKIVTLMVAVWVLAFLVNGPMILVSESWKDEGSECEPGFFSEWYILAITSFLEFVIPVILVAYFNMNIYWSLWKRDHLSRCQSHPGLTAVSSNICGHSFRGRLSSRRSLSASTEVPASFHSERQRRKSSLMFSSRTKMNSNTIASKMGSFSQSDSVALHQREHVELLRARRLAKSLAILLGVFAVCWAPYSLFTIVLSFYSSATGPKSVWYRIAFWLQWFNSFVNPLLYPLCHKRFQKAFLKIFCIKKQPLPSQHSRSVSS
T5 sequence (P35367 whole entry): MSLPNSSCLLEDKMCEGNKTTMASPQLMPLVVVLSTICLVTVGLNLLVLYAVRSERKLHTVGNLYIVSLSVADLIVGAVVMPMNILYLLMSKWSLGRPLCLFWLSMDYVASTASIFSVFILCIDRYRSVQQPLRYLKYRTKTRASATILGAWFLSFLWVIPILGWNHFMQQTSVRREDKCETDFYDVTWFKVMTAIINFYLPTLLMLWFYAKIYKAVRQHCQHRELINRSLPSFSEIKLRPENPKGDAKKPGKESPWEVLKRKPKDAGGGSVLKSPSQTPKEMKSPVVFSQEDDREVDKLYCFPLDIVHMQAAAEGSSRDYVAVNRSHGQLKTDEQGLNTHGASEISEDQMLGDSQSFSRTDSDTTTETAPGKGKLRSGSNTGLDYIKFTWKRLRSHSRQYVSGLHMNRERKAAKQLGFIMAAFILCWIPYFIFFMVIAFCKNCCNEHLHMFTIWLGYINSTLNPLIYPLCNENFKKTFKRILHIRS
T4 sequence (P25021 whole entry): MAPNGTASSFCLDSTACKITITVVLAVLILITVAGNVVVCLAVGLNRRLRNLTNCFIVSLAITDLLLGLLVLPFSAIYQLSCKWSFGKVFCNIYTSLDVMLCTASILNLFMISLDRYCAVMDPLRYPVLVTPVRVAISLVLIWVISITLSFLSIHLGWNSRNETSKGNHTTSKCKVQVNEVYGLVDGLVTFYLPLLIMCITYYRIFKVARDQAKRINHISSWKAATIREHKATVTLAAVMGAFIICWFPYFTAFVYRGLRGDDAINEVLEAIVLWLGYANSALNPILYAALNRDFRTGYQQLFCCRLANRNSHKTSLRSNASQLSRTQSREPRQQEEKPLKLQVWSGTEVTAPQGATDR
T1 sequence (Q9Y5N1 whole entry): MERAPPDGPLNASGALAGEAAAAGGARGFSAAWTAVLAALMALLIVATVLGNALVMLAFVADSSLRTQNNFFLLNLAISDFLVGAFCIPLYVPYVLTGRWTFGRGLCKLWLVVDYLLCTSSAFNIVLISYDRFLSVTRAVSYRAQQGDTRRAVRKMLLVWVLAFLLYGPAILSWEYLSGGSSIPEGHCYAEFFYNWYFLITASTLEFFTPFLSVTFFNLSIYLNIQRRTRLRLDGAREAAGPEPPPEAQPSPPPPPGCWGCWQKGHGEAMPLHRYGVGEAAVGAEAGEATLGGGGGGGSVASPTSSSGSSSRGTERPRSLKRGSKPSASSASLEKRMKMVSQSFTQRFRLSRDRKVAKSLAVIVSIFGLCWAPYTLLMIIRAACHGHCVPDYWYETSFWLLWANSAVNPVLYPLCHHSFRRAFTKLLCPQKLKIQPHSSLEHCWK
T3 sequence (Q9Y5N1 whole entry): as above

SMILES | Ki (H3R) [nM] | Ki (H4R) [nM] | inhibition of binding to H4R (H4R) | Ki (H3R membranes) [nM] | Ki (H2R) [nM] | Ki (H1R) [nM] | bioavailability [1] [%] | half-life [1] [min]
CC(C)(C)OC(=O)N1CCCc2cc(OCCCN3CCCCC3)ccc2C1 [Example 1, 7-(3-Piperidin-1-yl-propoxy)-1,3,4,5-tetrahydro-benzo[c]azepine-2-carboxylic acid tert-butyl ester] | 5.1 | ≥ 20000 | did not inhibit binding H4R | 5.1 | 813 | 648 | – | –
c1cc2c(cc1OCCCN1CCCCC1)CCCNC2 [Example 2, 7-(3-Piperidin-1-yl-propoxy)-2,3,4,5-tetrahydro-1H-benzo[c]azepine dihydrochloride] | 0.85 | ≥ 20000 | did not inhibit binding H4R | 0.85 | 894 | 1760 | – | –
CN(C)CC(=O)N1CCCc2cc(OCCCN3CCCCC3)ccc2C1 [Example 8, 2-Dimethylamino-1-[7-(3-piperidin-1-yl-propoxy)-1,3,4,5-tetrahydro-benzo[c]azepin-2-yl]-ethanone] | – | – | – | – | – | – | 49 | 732
CC(=O)N1CCc2ccc(OCCCN3CCCCC3)cc2CC1 [Example 19, 1-[7-(3-Piperidin-1-yl-propoxy)-1,2,4,5-tetrahydro-benzo[d]azepin-3-yl]-ethanone] | – | – | – | – | – | – | 100 | 744
